Results taken from PMC5428509, “Irreversible inhibition of BTK kinase by a novel highly selective inhibitor CHMFL-BTK-11 suppresses inflammatory response in rheumatoid arthritis model” (Scientific Reports, 2017).

Legend:
Test in all cases: biochemical
Design in all cases: KinomeScan competition binding panel (DiscoveRx), percent of control at 1 uM
Settings in all cases: read-out: Percent Control
[1] = molecular target: T1, ABL1(Q252H)-nonphosphorylated (Homo sapiens, UniProt P00519, Q252H)
T1 construct: nonphosphorylated
In short: (§1)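 KinomeScan technology used to profile binding across a panel of 456 kinases and mutants.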

CAMKK1 = CAMKK1 (Homo sapiens, UniProt Q8N5S9)
In short: as §1

CASK = CASK (Homo sapiens, UniProt O14936)
In short: as §1

CDKL2 = CDKL2 (Homo sapiens, UniProt Q92772)
In short: as §1

CSNK2A1 = CSNK2A1 (Homo sapiens, UniProt P68400)
Chain of CSNK2A1 (P68400 whole entry): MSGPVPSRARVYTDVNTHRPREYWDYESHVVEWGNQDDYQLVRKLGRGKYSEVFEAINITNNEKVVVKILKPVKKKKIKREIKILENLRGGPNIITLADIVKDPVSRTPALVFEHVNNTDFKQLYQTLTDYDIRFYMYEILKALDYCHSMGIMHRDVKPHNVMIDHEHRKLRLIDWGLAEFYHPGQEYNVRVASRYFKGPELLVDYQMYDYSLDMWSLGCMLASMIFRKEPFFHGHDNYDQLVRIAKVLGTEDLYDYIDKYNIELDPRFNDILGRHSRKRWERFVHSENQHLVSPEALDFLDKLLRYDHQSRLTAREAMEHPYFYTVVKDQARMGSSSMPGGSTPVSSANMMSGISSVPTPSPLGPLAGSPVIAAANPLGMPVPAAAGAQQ
In short: as §1

DLK = molecular target: T2, DLK (Homo sapiens, UniProt Q12852)
T2 construct: gene MAP3K12
T2 sequence (Q12852 whole entry): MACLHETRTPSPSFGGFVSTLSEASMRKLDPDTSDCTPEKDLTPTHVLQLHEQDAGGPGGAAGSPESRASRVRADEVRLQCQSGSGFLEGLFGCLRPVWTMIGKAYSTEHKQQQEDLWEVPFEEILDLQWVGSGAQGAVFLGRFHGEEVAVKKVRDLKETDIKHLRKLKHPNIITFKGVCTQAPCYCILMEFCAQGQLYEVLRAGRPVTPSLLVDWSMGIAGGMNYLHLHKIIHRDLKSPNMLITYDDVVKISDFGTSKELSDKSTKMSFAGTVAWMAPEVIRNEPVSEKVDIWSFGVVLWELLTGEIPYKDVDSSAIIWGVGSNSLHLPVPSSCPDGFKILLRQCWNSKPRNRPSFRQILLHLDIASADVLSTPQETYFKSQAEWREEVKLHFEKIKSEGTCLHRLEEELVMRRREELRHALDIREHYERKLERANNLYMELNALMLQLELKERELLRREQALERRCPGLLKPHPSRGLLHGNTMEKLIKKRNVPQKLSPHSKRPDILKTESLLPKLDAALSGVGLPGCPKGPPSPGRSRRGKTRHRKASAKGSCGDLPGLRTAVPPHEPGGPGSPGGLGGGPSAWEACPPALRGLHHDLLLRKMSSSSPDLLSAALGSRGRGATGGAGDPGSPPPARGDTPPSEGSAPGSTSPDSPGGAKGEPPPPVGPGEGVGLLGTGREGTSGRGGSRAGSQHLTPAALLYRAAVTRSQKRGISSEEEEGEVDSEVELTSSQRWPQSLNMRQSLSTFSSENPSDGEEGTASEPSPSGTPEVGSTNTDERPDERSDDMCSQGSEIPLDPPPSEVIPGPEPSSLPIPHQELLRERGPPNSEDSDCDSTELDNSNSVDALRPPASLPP
In short: as §1

DMPK = DMPK (Homo sapiens, UniProt Q09013)
In short: as §1

FGFR2 = FGFR2 (Homo sapiens, UniProt P21802)
In short: as §1

FGFR3 = FGFR3 (Homo sapiens, UniProt P22607)
In short: as §1

FLT3(ITD) = FLT3(ITD) (Homo sapiens, UniProt P36888, ITD)
In short: as §1

FLT3(K663Q) = FLT3(K663Q) (Homo sapiens, UniProt P36888, K663Q)
In short: as §1

IKK-beta = molecular target: T3, IKK-beta (Homo sapiens, UniProt O14920)
T3 construct: gene IKBKB
T3 sequence (O14920 whole entry): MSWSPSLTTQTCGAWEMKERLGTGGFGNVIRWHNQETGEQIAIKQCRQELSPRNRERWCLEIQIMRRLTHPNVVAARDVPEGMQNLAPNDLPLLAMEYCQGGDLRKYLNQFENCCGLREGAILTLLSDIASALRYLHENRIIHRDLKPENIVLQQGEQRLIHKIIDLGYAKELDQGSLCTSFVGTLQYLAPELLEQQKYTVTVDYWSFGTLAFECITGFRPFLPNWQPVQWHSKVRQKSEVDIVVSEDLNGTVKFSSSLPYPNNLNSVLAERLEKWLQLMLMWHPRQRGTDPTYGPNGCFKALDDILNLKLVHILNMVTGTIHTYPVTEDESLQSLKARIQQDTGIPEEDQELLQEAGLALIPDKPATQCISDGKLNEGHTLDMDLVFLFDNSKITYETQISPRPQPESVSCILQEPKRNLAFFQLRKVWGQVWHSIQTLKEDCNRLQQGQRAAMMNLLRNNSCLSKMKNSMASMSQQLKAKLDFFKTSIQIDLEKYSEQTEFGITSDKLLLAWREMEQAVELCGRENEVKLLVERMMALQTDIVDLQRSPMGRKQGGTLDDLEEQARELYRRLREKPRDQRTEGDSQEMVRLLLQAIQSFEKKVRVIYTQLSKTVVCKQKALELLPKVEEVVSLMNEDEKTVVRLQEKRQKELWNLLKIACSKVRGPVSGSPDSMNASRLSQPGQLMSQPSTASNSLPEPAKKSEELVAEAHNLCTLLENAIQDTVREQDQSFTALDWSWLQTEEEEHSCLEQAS
In short: as §1

IRAK4 = IRAK4 (Homo sapiens, UniProt Q9NWZ3)
Chain of IRAK4 (Q9NWZ3 whole entry): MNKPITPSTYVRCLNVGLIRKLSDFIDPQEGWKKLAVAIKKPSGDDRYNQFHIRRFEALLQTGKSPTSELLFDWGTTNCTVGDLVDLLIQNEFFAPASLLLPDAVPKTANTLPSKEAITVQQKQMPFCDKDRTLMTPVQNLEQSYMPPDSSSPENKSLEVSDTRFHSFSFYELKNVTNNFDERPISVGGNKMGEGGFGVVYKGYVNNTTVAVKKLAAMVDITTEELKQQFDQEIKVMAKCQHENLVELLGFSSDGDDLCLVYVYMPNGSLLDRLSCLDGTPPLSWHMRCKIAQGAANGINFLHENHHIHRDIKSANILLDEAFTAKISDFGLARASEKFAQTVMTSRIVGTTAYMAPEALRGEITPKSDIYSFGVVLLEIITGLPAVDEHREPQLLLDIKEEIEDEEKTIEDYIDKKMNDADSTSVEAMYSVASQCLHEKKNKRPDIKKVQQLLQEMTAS
In short: as §1

JNK2 = molecular target: T4, JNK2 (Homo sapiens, UniProt P45984)
T4 construct: gene MAPK9
In short: as §1

KIT(D816H) = KIT(D816H) (Homo sapiens, UniProt P10721, D816H)
In short: as §1

KIT(V559D) = KIT(V559D) (Homo sapiens, UniProt P10721, V559D)
In short: as §1

KIT(V559D,V654A) = KIT(V559D,V654A) (Homo sapiens, UniProt P10721, V559D/V654A)
In short: as §1

MAP4K3 = MAP4K3 (Homo sapiens, UniProt Q8IVH8)
In short: as §1

NDR2 = molecular target: T5, NDR2 (Homo sapiens, UniProt Q9Y2H1)
T5 construct: gene STK38L
In short: as §1

NEK4 = NEK4 (Homo sapiens, UniProt P51957)
Chain of NEK4 (P51957 whole entry): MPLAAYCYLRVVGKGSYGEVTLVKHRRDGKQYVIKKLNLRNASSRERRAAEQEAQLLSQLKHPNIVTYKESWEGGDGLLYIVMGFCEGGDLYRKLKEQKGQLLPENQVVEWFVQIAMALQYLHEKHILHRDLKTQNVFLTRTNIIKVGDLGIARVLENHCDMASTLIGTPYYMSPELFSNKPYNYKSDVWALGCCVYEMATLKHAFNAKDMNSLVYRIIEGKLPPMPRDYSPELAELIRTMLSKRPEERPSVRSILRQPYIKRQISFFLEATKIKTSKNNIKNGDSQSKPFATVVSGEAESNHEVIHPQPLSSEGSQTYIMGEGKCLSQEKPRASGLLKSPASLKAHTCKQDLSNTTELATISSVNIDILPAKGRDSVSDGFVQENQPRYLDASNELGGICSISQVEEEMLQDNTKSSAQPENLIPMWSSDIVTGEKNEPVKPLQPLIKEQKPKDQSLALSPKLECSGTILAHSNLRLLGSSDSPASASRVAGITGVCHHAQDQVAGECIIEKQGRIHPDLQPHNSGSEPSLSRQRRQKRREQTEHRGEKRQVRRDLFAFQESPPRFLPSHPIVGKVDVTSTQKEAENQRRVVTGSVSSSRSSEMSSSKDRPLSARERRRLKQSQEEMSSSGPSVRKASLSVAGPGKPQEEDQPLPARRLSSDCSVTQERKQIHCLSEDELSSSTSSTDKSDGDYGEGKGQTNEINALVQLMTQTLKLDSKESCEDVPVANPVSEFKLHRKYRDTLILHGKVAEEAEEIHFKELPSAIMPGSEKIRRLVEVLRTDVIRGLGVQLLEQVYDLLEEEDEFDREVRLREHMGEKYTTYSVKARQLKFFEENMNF
In short: as §1

NEK6 = NEK6 (Homo sapiens, UniProt Q9HC98)
In short: as §1

PIM2 = PIM2 (Homo sapiens, UniProt Q9P1W9)
Chain of PIM2 (Q9P1W9 whole entry): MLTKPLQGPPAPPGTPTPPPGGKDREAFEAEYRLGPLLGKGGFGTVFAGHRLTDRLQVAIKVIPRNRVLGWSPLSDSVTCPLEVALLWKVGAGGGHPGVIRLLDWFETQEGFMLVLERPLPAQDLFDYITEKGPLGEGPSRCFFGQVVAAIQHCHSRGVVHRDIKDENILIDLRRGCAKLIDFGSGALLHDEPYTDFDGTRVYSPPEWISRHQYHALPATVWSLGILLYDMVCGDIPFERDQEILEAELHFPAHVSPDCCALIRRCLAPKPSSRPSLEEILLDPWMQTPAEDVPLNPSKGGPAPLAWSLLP
In short: as §1

SIK = molecular target: T6, SIK (Homo sapiens, UniProt P57059)
T6 construct: gene SIK1
T6 sequence (P57059 whole entry): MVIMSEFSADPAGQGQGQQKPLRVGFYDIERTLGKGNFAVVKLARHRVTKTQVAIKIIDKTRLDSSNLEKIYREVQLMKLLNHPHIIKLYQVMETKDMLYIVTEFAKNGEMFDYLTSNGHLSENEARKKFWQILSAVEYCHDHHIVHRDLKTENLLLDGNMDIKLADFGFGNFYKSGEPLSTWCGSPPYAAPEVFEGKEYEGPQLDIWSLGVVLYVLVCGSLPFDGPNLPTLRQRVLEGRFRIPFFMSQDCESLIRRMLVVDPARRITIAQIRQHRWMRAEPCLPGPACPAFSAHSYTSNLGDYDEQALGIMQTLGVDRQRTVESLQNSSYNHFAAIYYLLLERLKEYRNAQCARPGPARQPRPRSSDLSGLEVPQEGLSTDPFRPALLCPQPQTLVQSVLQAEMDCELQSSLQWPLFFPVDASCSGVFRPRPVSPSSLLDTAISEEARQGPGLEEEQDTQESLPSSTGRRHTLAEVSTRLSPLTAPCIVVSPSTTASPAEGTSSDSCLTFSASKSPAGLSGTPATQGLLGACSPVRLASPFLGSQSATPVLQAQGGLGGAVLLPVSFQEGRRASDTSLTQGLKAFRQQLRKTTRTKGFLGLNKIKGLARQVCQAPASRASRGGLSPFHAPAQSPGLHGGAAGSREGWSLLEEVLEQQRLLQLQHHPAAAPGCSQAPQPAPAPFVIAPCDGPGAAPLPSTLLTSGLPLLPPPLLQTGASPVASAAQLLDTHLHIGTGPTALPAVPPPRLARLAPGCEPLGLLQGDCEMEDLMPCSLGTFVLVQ
In short: as §1

TAK1 = molecular target: T7, TAK1 (Homo sapiens, UniProt O43318)
T7 construct: gene MAP3K7
In short: as §1

p38-gamma = molecular target: T8, p38-gamma (Homo sapiens, UniProt P53778)
T8 construct: gene MAPK12
T8 sequence (P53778 whole entry): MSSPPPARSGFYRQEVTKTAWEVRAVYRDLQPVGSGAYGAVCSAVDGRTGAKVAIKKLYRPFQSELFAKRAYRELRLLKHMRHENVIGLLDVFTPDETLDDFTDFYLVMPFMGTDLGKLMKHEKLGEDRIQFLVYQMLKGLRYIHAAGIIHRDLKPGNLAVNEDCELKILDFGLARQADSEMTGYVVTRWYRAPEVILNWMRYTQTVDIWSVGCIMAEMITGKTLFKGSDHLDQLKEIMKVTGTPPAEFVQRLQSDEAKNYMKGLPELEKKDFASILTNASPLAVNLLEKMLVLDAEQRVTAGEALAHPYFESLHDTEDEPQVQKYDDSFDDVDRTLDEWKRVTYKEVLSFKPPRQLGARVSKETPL
In short: as §1

For C=CC(=O)Nc1cc(-n2c(=O)ccc3cnc4ccc(-n5cccn5)cc4c32)ccc1C [CHMFL-BTK-11], which remaining binding at 1 µM [1] is on record?
Its remaining binding at 1 µM is 100%.

What about the remaining binding at 1 µM (CAMKK1) of the same compound?
The remaining binding at 1 µM was 78%.

What about the remaining binding at 1 µM (CASK) of the same compound?
The remaining binding at 1 µM was 86%.

And the remaining binding at 1 µM (CDKL2)?
Its remaining binding at 1 µM is 81%.

And the remaining binding at 1 µM (CSNK2A1)?
The remaining binding at 1 µM was 92%.

What about the remaining binding at 1 µM (DLK) of the same compound?
The remaining binding at 1 µM was 100%.

And the remaining binding at 1 µM (DMPK)?
Its remaining binding at 1 µM is 100%.

What about the remaining binding at 1 µM (FGFR2) of the same compound?
The remaining binding at 1 µM was 88%.

What about the remaining binding at 1 µM (FGFR3) of the same compound?
Its remaining binding at 1 µM is 89%.

What about the remaining binding at 1 µM (FLT3(ITD)) of the same compound?
Its remaining binding at 1 µM is 89%.

And the remaining binding at 1 µM (FLT3(K663Q))?
Its remaining binding at 1 µM is 100%.

What about the remaining binding at 1 µM (IKK-beta) of the same compound?
Its remaining binding at 1 µM is 86%.

What about the remaining binding at 1 µM (IRAK4) of the same compound?
Its remaining binding at 1 µM is 82%.

What about the remaining binding at 1 µM (JNK2) of the same compound?
Its remaining binding at 1 µM is 100%.

And the remaining binding at 1 µM (KIT(D816H))?
The remaining binding at 1 µM was 100%.

And the remaining binding at 1 µM (KIT(V559D))?
Its remaining binding at 1 µM is 100%.

What about the remaining binding at 1 µM (KIT(V559D,V654A)) of the same compound?
The remaining binding at 1 µM was 100%.

What about the remaining binding at 1 µM (MAP4K3) of the same compound?
The remaining binding at 1 µM was 100%.

And the remaining binding at 1 µM (NDR2)?
Its remaining binding at 1 µM is 99%.

What about the remaining binding at 1 µM (NEK4) of the same compound?
Its remaining binding at 1 µM is 100%.

And the remaining binding at 1 µM (NEK6)?
Its remaining binding at 1 µM is 100%.

And the remaining binding at 1 µM (PIM2)?
The remaining binding at 1 µM was 100%.

What about the remaining binding at 1 µM (SIK) of the same compound?
The remaining binding at 1 µM was 100%.

And the remaining binding at 1 µM (TAK1)?
Its remaining binding at 1 µM is 98%.

What about the remaining binding at 1 µM (p38-gamma) of the same compound?
Its remaining binding at 1 µM is 79%.
